# Residues, ends and D or L forms follow the SMILES beside them.
# Tests used:
# [1] = test system: Staphylococcus aureus USA300; conditions: S. aureus USA300
# Protocol: The MIC assays were performed as previously described ([43]). Briefly, peptides were plated in a 2-fold dilution series (50 μL/well) of Mueller-Hinton broth (MHB) in Costar 96-well cell culture plates (Corning, NY, USA). Three repeats were set for each concentration. E. coli ATCC 25922, A. hydrophila ATCC 7966, P. aeruginosa PAO1, P. aeruginosa FRD1, S. aureus ATCC 25923, S. agalactiae ATCC 13813, S. pneumoniae ATCC 49619, methicillin-resistant S. aureus ATCC 43300, and methicillin-resistant S. aureus USA300 were cultured in Luria-Bertani (LB) medium, while K. pneumoniae CMCC46117 was cultured in tryptic soy broth (TSB) medium. Incubation was done at 37°C and 150 × g for 12 h. Bacteria were transferred to fresh MHB at a ratio of 1% (vol/vol) and incubated to reach a logarithmic growth phase. Then, 50 μL of a bacterial suspension at 4 × 10^6 CFU/mL was added to each well. After incubation at 37°C for 22 ± 2 h, turbidity was measured using an EnSpire multimode plate reader (PerkinElmer, Singapore) at 595 nm.
# [2] = test system: S. aureus ATCC 25923; assay: SYTOX green membrane permeability assay; type: cell-based, Staphylococcus aureus; conditions: S. aureus ATCC 25923, 5 μM SYTOX green, read every 1 min
# Protocol: (§1) The SYTOX green staining assay was performed to assess peptide-associated membrane damage ([47], [52]). E. coli ATCC 25922 and S. aureus ATCC 25923 cells in the mid-logarithmic phase were collected, washed thrice, and resuspended (5 × 10^7 CFU/mL) in buffer B (10 mM Tris-HCl, pH 7.4, at 25°C). The bacterial suspensions were mixed with 5 μM SYTOX green and incubated for 15 min at room temperature in the dark. Then, the mixtures were added to black, clear-bottom 96-well plates at a density of 100 μL/well. After peptide addition, SYTOX green uptake was monitored using an EnSpire multimode plate reader (PerkinElmer, Singapore) with an excitation wavelength of 485 nm and an emission wavelength of 520 nm. Each measurement interval was 1 min, totaling 30 to 60 times. Melittin was used as the positive control, while bovine serum albumin (BSA) was the negative control.
# [3] = test system: Gram-negative bacteria; assay: Time-kill curves (4x MIC); type: cell-based; conditions: 4× MIC
# Protocol: Consistent with previous reports, time-kill curves of lcCCL28-25 against Gram-negative and Gram-positive bacteria were performed under 4× MIC conditions ([44]). Bacteria were incubated to the logarithmic growth stage. Bacterial cells in the logarithmic growth phase were diluted to achieve log(CFU/mL) values of ~5 to 6 and incubated with lcCCL28-25 for 1, 2, 4, 8, 16, 30, 60, 120, and 240 min. At each time point, 50-μL amounts of the samples were diluted to different concentrations and plated onto agar plates. After overnight incubation, the numbers of colonies on the plates were counted.
# [4] = test system: P. aeruginosa FRD1 biofilm; assay: Biofilm inhibition assay (crystal violet); type: cell-based, Pseudomonas aeruginosa; conditions: P. aeruginosa FRD1, 6.25 μg/mL (0.5× MIC), 37°C 24 h, triplicate
# Protocol: (§2) In vitro static biofilm models have been reported in many studies ([45][–][47]). A Pseudomonas aeruginosa mucoid strain, FRD1, isolated from a cystic fibrosis patient, was used for the biofilm inhibition and eradication assay. The FRD1 strain was shock cultured to logarithmic growth stage at 37°C and 150 × g. After cleaning using PBS and centrifuging thrice, the bacteria were resuspended in MHB medium (with 0.2% glucose) and gradient diluted to an OD600 value of ~0.01.
# For the biofilm inhibition assay, 90-μL amounts of bacterial suspensions and 10-μL amounts of increasing concentrations of the peptide were added to a 96-well plate and coincubated at 37°C for 24 h. Then, bacterial biofilms were quantified as follows: (i) planktonic bacteria were removed by washing thrice using PBS, (ii) biofilm bacteria were fixed in 100 μL of 4% paraformaldehyde at room temperature for 15 min and (iii) stained with 100 μL of 0.1% crystal violet for 30 min, (iv) the dye was removed, followed by washing twice using PBS, adding 200 μL of 95% ethanol to each well to dissolve the crystal violet, and finally, (v) absorbance was measured at 590 nm using an EnSpire multimode plate reader (PerkinElmer, Singapore).
# [5] = test system: E. coli ATCC 25922; assay: SYTOX green membrane permeability assay; type: cell-based, Escherichia coli; conditions: E. coli ATCC 25922, 5 μM SYTOX green, read every 1 min
# Protocol: as §1
# [6] = test system: P. aeruginosa FRD1 biofilm; assay: Biofilm eradication assay (crystal violet); type: cell-based, Pseudomonas aeruginosa; conditions: for biofilm eradication rate: 24-h mature FRD1 biofilm, 2 h
# Protocol: as §2
# For the eradication assay, biofilms of the FRD1 strain were grown in a 96-well plate. Briefly, 100-μL amounts of the bacterial suspension were plated and incubated at 37°C for 24 h. Then, wells containing the biofilms were washed thrice using PBS. The peptide was serially diluted in MHB medium (with 0.2% glucose) and added to the 96-well plates (100 μL/well). The plates were incubated for 2 h at 37°C. Finally, bacterial biofilms were quantified as described above for the biofilm inhibition assay.
# [7] = test system: methicillin-resistant S. aureus standard strain USA300; assay: Neutropenic mouse thigh infection model; type: in vivo; conditions: neutropenic BALB/c mice, 300 μg i.p. at 2 h postinfection
# Protocol: Female BALB/c mice were used to construct a neutropenic murine thigh infection model as previously published ([48][–][50]). Briefly, mice (n = 9/group) were rendered neutropenic by consecutive intraperitoneal injections of 150 and 100 mg/kg of body weight cyclophosphamide at 4 and 1 day before bacterial injection ([51]). An S. aureus USA300 inoculum (~1.5 × 10^6 CFU/mL) was prepared by diluting logarithmic phase bacteria with fresh MHB. Each mouse was infected by intramuscular injection of 0.1 mL of the inoculum (~1.5 × 10^5 CFU) into the right thigh muscles. At 2 h postinfection, 0.1 mL of lcCCL28-25 peptide (300 μg) or vancomycin hydrochloride (300 μg, 15 mg/kg) was administered by intraperitoneal injection. The control group was injected with an equal volume of PBS. Untreated control mice were sacrificed at the start of treatment to establish the baseline bacterial burden. Mice in the three treatment groups (PBS, vancomycin, and lcCCL28-25) were sacrificed at 48 h postinfection. Their right thighs were aseptically harvested, placed in sterile saline and homogenized using a Bioprep-6 homogenizer (Allsheng, Hangzhou, China). After being serially diluted to 1:10 in sterile saline, 100-μL amounts of tissue suspensions at various concentrations were plated on LB agar to determine bacterial counts after incubation at 37°C for 24 h.
structure (smiles),measurement,setting,value
CSCC[C@H](NC(=O)[C@H](Cc1c[nH]c2ccccc12)NC(=O)[C@H](CCCCN)NC(=O)[C@@H]1CCCN1C(=O)[C@H](Cc1c[nH]cn1)NC(=O)[C@H](C)N)C(=O)N[C@@H](CCC(=O)O)C(=O)N[C@H](C(=O)N[C@H](C(=O)N[C@@H](CCCNC(=N)N)C(=O)N[C@@H](CO)C(=O)N[C@@H](CCCNC(=N)N)C(=O)N[C@@H](CCC(N)=O)C(=O)N[C@@H](CCCNC(=N)N)C(=O)N[C@@H](CCCCN)C(=O)N[C@@H](CCCCN)C(=O)N[C@@H](CCCCN)C(=O)N[C@@H](Cc1c[nH]cn1)C(=O)N[C@@H](CC(N)=O)C(=O)N[C@@H](CCCCN)C(=O)N[C@@H](CCCNC(=N)N)C(=O)N[C@@H](CCCNC(=N)N)C(=O)N[C@@H](C)C(=O)N[C@H](C(=O)N[C@@H](Cc1ccc(O)cc1)C(=O)O)[C@@H](C)O)C(C)C)C(C)C [lcCCL28-25] (H-AHPKWMEVVRSRQRKKKHNKRRATY-OH; N-terminus and C-terminus assumed),decrease in antimicrobial activity with CaCl2,[1]; 2.5 mM CaCl2 versus peptide only,2 fold
same,decrease in antimicrobial activity with NaCl,[1]; 150 mM NaCl versus peptide only,4 fold
same,reduction of antimicrobial activity under 10% serum,[1]; 10% mouse serum,4 fold
same,reduction of antimicrobial activity under 20% serum,[1]; 20% mouse serum,8 fold
same,reduction of antimicrobial activity under 40% serum,[1]; 40% mouse serum,32 fold
same,SYTOX green fluorescence intensity,[2],increased rapidly within 20 min
same,time for CFU counts to be reduced by more than half,[3],more than 1 h
same,reduction of biofilm formation,[4],~ 64%
same,SYTOX green fluorescence intensity,[5],did not increase significantly in a short time (20 min)
same,biofilm eradication rate,[6]; 12.5 μg/mL,more than 80%
same,biofilm eradication rate,[6]; 25 μg/mL,above 90%
same,concentration required to eradicate ~50% of biofilm,"[6]; 24-h mature P. aeruginosa FRD1 biofilm, 2 h treatment, crystal violet",3.13 µg/mL
same,reduction in average bacterial load in thighs versus control group,"[7]; S. aureus USA300 i.m., 48 h postinfection",0.86 log10 CFU/g
same,mice that died after 48 h of infection,"[7]; n = 9/group, three died in PBS group",one

# — publication PMC9241943, “LcCCL28-25, Derived from Piscine Chemokine, Exhibits Antimicrobial Activity against Gram-Negative and Gram-Positive Bacteria In Vitro and In Vivo” (Microbiology Spectrum, 2022)
